Here are results for three molecules from PMC7782687, “Insights into SusCD-mediated glycan import by a prominent gut symbiont” (Nature Communications, 2021).

Where “and” joins values, the source holds several entries; their conditions need not be identical. Identical values can stand only once.

The test system of one data set is B. theta Δ1760 strain. As to the kind of experiment: Growth of Δ1760 (surface endo-levanase deletion) strain on levans from different sources. In kind it is cell-based, Bacteroides thetaiotaomicron. Conditions: minimal media, anaerobic, 37 °C, replicates 1-3, single wells. How it is done: Growth curves were performed in an Epoch microplate spectrometer (Biotek Instruments Ltd) with 96-well Costar culture plate (Sigma-Aldrich) inside an anaerobic cabinet at 37 °C (Don Whitley Scientific, A35 workstation). Media were inoculated 1:10 with bacterial cultures previously grown overnight in BHI. Final culture volumes of 200 µl were used, and each condition was performed in triplicate. Optical density at 600 nm was measured in each well at 30 min intervals.
In most cases, the levan used was from Erwinia herbicola (Sigma). For analysis of the growth of the Δ1760 strain, bacterial levans from Bacillus sp. (Montana Polysaccharides) and Zymomonas mobilis[64] (a kind gift from Prof. Dr. Yekta Göksunger, Ege University, Izmir, Turkey) were also used, as well as levan from Timothy grass (Megazyme) and in vitro synthesised levan. In vitro synthesised levan was made using Bacillus subtilis levansucrase incubated with 20% sucrose in PBS for 24 h at 37 °C. Proteinase K (100 µg/ml) was then added to remove the protein, before being precipitated out using 0.5% trichloroacetic acid final. The levan was then extensively dialysed against water and freeze dried.

The target of data set [1] is T1, Bt1763 (SusC) TonB-dependent transporter of the Bacteroides thetaiotaomicron levan utilisation locus (Bacteroides thetaiotaomicron, UniProt Q8A6W3 26-1041).
T1 construct: Bt1763 (SusC), TonB-dependent transporter of the levan PUL, Bacteroides thetaiotaomicron VPI-5482; numbers count on: the mature protein; In closed states seen by cryo-EM the plug domain has no density; source: endogenous, B. thetaiotaomicron VPI-5482 (Bt1762-his strain) grown on MM fructose; outer membrane extracted with LDAO; purified with His-tagged Bt1762 (IMAC, SEC)
T1 sequence (looked up): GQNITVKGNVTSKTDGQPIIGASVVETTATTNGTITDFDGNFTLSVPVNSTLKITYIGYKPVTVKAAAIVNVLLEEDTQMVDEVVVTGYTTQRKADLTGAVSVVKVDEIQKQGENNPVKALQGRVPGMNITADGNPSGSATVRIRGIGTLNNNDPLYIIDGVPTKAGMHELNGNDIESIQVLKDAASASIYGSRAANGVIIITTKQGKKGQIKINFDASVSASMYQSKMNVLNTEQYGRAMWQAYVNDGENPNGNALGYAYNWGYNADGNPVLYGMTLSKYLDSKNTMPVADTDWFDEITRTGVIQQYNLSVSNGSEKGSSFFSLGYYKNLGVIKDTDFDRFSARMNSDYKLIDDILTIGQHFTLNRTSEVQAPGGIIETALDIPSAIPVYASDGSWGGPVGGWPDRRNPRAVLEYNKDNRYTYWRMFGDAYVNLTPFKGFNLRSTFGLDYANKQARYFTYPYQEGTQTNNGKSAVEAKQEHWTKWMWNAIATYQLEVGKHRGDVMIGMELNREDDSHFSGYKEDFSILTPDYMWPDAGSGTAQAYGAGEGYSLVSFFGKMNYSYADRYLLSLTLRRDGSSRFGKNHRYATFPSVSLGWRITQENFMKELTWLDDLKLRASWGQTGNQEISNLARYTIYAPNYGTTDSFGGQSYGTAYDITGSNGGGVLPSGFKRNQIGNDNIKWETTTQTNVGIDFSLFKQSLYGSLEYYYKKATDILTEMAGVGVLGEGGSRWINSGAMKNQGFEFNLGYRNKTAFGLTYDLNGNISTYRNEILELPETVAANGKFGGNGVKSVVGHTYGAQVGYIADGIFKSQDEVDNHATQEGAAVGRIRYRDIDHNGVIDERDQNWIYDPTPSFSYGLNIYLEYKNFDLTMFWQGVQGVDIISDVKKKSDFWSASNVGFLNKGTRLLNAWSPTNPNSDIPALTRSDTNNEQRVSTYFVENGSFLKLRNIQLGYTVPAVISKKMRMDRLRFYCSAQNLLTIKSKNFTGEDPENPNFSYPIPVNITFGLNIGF
Nature of the data set: crystal structure; Bt1762-63 purified from B. theta outer membranes, in 0.4% C8E4; apo and with 2.5 mM β2,6 FOS; 0.15 M sodium formate, 0.1 M HEPES pH 7-7.5, 16-20% PEG 3350. Conditions: both partners purified.

Data set [2] concerns the molecule itself. The description is as above.

With `O=C(CO)C(O)C(O)C(O)CO` (centres unmarked) [Frc], the “Optical density at 600 nm” value in the data set on B. theta Δ1760 strain (time 00:00:00, carbon source 0.5 %) is 0.303 and 0.324 and 0.321 and 0.418 and 0.289 and 0.311 and 0.334 and 0.296 and 0.325; in the data set on B. theta Δ1760 strain (time 00:30:00, carbon source 0.5 %), 0.171 (2×) and 0.174 (2×) and 0.172 (2×) and 0.177 and 0.173 and 0.181; with B. theta Δ1760 strain (time 01:00:00, carbon source 0.5 %) it was 0.178 (2×) and 0.179 (2×) and 0.177 (2×) and 0.18 (2×) and 0.182; in the data set on B. theta Δ1760 strain (time 01:30:00, carbon source 0.5 %) it was 0.186 and 0.189 (2×) and 0.187 (2×) and 0.188 (2×) and 0.184 and 0.19; in the data set on B. theta Δ1760 strain (time 02:00:00, carbon source 0.5 %), 0.194 and 0.197 and 0.196 (2×) and 0.199 (2×) and 0.191 and 0.202 and 0.198; with B. theta Δ1760 strain (time 02:30:00, carbon source 0.5 %), 0.203 and 0.21 and 0.212 and 0.211 and 0.198 and 0.204 and 0.215 and 0.206 and 0.214. The “Optical density at 600 nm” value was 0.211 and 0.217 and 0.232 and 0.225 and 0.205 and 0.212 and 0.229 and 0.214 and 0.226 with B. theta Δ1760 strain (time 03:00:00, carbon source 0.5 %); 0.22 and 0.224 (2×) and 0.261 and 0.24 (2×) and 0.214 and 0.221 and 0.255 with B. theta Δ1760 strain (time 03:30:00, carbon source 0.5 %); 0.228 and 0.23 (2×) and 0.304 and 0.261 (2×) and 0.22 and 0.234 and 0.284 in the data set with B. theta Δ1760 strain (time 04:00:00, carbon source 0.5 %); 0.233 and 0.24 and 0.355 and 0.279 and 0.223 and 0.252 and 0.313 and 0.238 and 0.283 in the data set with B. theta Δ1760 strain (time 04:30:00, carbon source 0.5 %); 0.238 and 0.259 and 0.442 and 0.309 and 0.227 and 0.278 and 0.351 and 0.243 and 0.306 with B. theta Δ1760 strain (time 05:00:00, carbon source 0.5 %); 0.249 with B. theta Δ1760 strain (time 05:30:00, carbon source 0.5 %).

B1: Bt1762 (SusD) of the Bacteroides thetaiotaomicron levan utilisation locus, with C-terminal His6 tag (natural protein, UniProt Q8A6W4 19-570, looked up)
chain: CDDFLDRQVPQGIVTGDQIASPEYVDNLVISAYAIWATGDDINSSFSLWNYDVRSDDCYKGGSGTEDGGVFNALEISKGINTTDWNINDIWKRLYQCITRANTALQSLDQMDEKTYPLKNQRIAEMRFLRGHAHFMLKQLFKKIVIVNDENMEPDAYNELSNTTYTNDEQWQKIADDFQFAYDNLPEVQIEKGRPAQAAAAAYLAKTYLYKAYRQDGADNALTGINEEDLKQVVKYTDPLIMAKGGYGLETDYSMNFLPQYENGAESVWAIQYSINDGTYNGNLNWGMGLTTPQILGCCDFHKPSQNLVNAFKTDSQGKPLFSTYDNENYEVATDNVDPRLFHTVGMPGFPYKYNEGYIIQKNDDWSRSKGLYGYYVSLKENVDPDCDCLKKGSYWASSLNHIVIRYADVLLMRAEALIQLNDGRITDAISLINEVRSRAAGSTMLIFNYKEDYGVNFKVTPYDLKAYAQDEAMKMLKWERRVEFGMESSRFFDLVRWGEAKDVINAYYVTEASRCSIYKNAGFTENKNEYLPVPFEQISASNGNYTQNFGW
modifications: lipid anchor (lipoprotein)
notes: numbers count on: the mature protein; His6 tag is chromosomal; also called SusD lid; WT (Bt1762-his strain); source: B. thetaiotaomicron VPI-5482 (Bt1762-his strain) grown on MM fructose; outer membrane extracted with LDAO; purified with Bt1763 (IMAC, SEC); not shown: His6, C-terminal, kept
B1: the binding result in data set [1] is “binds”.

B2: Bt1762-Bt1763 SusCD complex (complex, Bacteroides thetaiotaomicron)
chain 1: B1 chain
chain 2: T1 sequence (looked up)
modifications: lipid anchor (lipoprotein)
notes: Bt1762 (SusD), Bacteroides thetaiotaomicron VPI-5482; as m1; numbers count on: the mature protein; Bt1763 (SusC), Bacteroides thetaiotaomicron VPI-5482; as m2; One SusCD unit (one Bt1762, one Bt1763); two such units form the SusC2D2 dimer; also called Bt1762-63; BT1762-63; source: B. thetaiotaomicron VPI-5482 (Bt1762-his strain) grown on MM fructose; outer membrane extracted with LDAO; purified …
B2: the “stoichiometry N” value in data set [2] amounted to 2.
